From ChEMBL document CHEMBL4033647, “Novel coumarin- and quinolinone-based polycycles as cell division cycle 25-A and -C phosphatases inhibitors induce proliferation arrest and apoptosis in cancer cells” (Eur J Med Chem, 2017)
Active and inactive are the calls of the source. The calls are words filed in the database; no cut-off is given here.

How the values were obtained:
A-431 [1] = assay: Cell cycle arrest in human A431 cells assessed as accumulation at G1 phase at 10 uM after 24 hrs by propidium iodide staining based flow cytometric analysis (reference value: 53.04%); format: functional
A-431 [2] = assay: Cytotoxicity against human A431 cells assessed as reduction in cell viability at 10 uM after 24 hrs by MTT assay; format: functional
Hs 683 = assay: Cytotoxicity against human Hs683 cells assessed as reduction in cell viability after 72 hrs by MTT assay; format: functional, cell-based; conditions: Hs 683, 72 h
A-431 [3] = assay: Cell cycle arrest in human A431 cells assessed as accumulation at S phase at 10 uM after 24 hrs by propidium iodide staining based flow cytometric analysis (reference value: 17.33%); format: functional
A-431 [4] = assay: Cell cycle arrest in human A431 cells assessed as accumulation at S phase at 50 uM after 24 hrs by propidium iodide staining based flow cytometric analysis (reference value: 17.33%); format: functional
MCF7 = assay: Cytotoxicity against human MCF7 cells assessed as reduction in cell viability after 72 hrs by MTT assay; format: functional, cell-based; conditions: MCF7, 72 h
A-431 [5] = assay: Cytotoxicity against human A431 cells assessed as cell viability at 10 uM after 48 hrs by MTT assay; format: functional; conditions: A-431, 48 h, read-out: Activity
A-431 [6] = assay: Cytotoxicity against human A431 cells assessed as reduction in cell viability after 24 hrs by MTT assay; format: functional, cell-based; conditions: A-431, 24 h
[7] = target: T1, M-phase inducer phosphatase 3 (Homo sapiens) (UniProt P30307); assay: Inhibition of CDC25C in human A431 cells assessed as decrease in CDK-mediated phosphorylation of histone H3 at Ser10 residues at 50 uM after 24 hrs by Western blot analysis; format: cell-based
T1 sequence (whole entry): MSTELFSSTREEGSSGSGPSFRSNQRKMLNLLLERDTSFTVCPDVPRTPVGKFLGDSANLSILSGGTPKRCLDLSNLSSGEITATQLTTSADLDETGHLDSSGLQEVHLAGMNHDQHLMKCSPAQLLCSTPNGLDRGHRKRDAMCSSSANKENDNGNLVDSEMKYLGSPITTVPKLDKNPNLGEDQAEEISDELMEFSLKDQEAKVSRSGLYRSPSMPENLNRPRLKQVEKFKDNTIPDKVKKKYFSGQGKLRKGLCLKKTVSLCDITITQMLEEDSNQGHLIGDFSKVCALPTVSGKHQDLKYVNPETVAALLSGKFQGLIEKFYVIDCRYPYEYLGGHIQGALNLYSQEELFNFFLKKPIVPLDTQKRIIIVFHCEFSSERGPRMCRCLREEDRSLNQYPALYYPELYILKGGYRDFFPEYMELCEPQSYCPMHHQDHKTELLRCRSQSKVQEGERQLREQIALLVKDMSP

A-431 [8] = assay: Cell cycle arrest in human A431 cells assessed as accumulation at subG1 phase at 10 uM after 24 hrs by propidium iodide staining based flow cytometric analysis (reference value: 3.40%); format: functional
[9] = Cytotoxicity against human U373n cells assessed as reduction in cell viability after 72 hrs by MTT assay; format: functional, cell-based
A-431 [10] = assay: Cell cycle arrest in human A431 cells assessed as accumulation at subG1 phase at 50 uM after 24 hrs by propidium iodide staining based flow cytometric analysis (reference value: 3.40%); format: functional
[11] = target: T2, M-phase inducer phosphatase 3 (Homo sapiens, UniProt P30307); assay: Inhibition of recombinant human full length GST-tagged CDC25C expressed in Escherichia coli BL21-DE3 pLysS using 3-O-methylfluorescein phosphate as substrate after 2 hrs by fluorimetric analysis
T2 sequence (P30307 whole entry): T1 sequence (whole entry)

A549 = assay: Cytotoxicity against human A549 cells assessed as reduction in cell viability after 72 hrs by MTT assay; format: functional, cell-based; conditions: A549, 72 h
A-431 [12] = assay: Decrease in CDC25C protein expression level in human A431 cell extract at 50 uM after 24 hrs by Western blot analysis; format: functional, cell-based
A-431 [13] = assay: Growth inhibition of human A431 cells at 10 uM by trypan blue dye based assay; format: functional, cell-based; conditions: TDE = time-dependent effect
[14] = target: T1, M-phase inducer phosphatase 3 (Homo sapiens); assay: Inhibition of CDC25C in human A431 cells assessed as increase in phosphorylation of CDK1 at Thr14/Tyr15 residues at 50 uM after 24 hrs by Western blot analysis; format: cell-based
[15] = Potency index, ratio of NSC95397 IC50 to compound IC50 against human U373n cells; format: functional
PC-3 = assay: Cytotoxicity against human PC3 cells assessed as reduction in cell viability after 72 hrs by MTT assay; format: functional, cell-based; conditions: PC-3, 72 h
SK-MEL-28 = assay: Cytotoxicity against human SK-MEL-28 cells assessed as reduction in cell viability after 72 hrs by MTT assay; format: functional, cell-based; conditions: SK-MEL-28, 72 h
[16] = target: T1, M-phase inducer phosphatase 3 (Homo sapiens); assay: Inhibition of CDC25C in human A431 cells assessed as increase in CDK-mediated phosphorylation of histone H3 at Ser10 residues at 10 uM after 24 hrs by Western blot analysis; format: cell-based
A-431 [17] = assay: Cell cycle arrest in human A431 cells after 24 hrs by propidium iodide staining based flow cytometric analysis; format: functional
[18] = target: T3, M-phase inducer phosphatase 1 (Homo sapiens, UniProt P30304); assay: Inhibition of recombinant human full length GST-tagged CDC25A expressed in Escherichia coli BL21-DE3 pLysS using 3-O-methylfluorescein phosphate as substrate after 2 hrs by fluorimetric analysis
T3 sequence (P30304 whole entry): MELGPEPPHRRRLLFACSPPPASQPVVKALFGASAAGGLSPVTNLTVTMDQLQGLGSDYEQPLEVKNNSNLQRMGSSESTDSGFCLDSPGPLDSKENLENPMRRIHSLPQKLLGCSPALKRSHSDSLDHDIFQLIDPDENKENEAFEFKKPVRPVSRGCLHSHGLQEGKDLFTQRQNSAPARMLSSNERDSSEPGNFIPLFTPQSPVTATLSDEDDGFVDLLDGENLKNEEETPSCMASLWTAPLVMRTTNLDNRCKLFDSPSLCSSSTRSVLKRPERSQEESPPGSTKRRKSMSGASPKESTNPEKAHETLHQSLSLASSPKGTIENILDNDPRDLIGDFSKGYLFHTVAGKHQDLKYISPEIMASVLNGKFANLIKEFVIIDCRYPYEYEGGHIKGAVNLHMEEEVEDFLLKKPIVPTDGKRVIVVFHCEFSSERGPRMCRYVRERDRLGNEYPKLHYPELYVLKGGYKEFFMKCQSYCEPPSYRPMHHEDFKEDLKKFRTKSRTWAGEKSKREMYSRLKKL

A-431 [19] = assay: Effect on CDC25C splice variant protein expression in human A431 cell extract at 50 uM after 24 hrs by Western blot analysis; format: functional, cell-based
A-431 [20] = assay: Induction of apoptosis in human A431 cells assessed as caspase-3 cleavage at 10 uM after 24 hrs by Western blot analysis; format: functional, cell-based
A-431 [21] = assay: Induction of apoptosis in human A431 cells assessed as PARP cleavage at 10 uM after 24 hrs by Western blot analysis; format: functional, cell-based
A-431 [22] = assay: Cell cycle arrest in human A431 cells assessed as accumulation at G1 phase at 50 uM after 24 hrs by propidium iodide staining based flow cytometric analysis (reference value: 53.04%); format: functional
A-431 [23] = assay: Cell cycle arrest in human A431 cells assessed as accumulation at G2/M phase at 50 uM after 24 hrs by propidium iodide staining based flow cytometric analysis (reference value: 26.23%); format: functional
A-431 [24] = assay: Cell cycle arrest in human A431 cells assessed as accumulation at G2/M phase at 10 uM after 24 hrs by propidium iodide staining based flow cytometric analysis (reference value: 26.23%); format: functional
A-431 [25] = assay: Induction of apoptosis in human A431 cells assessed as PARP cleavage at 50 uM after 24 hrs by Western blot analysis; format: functional, cell-based
A-431 [26] = assay: Induction of apoptosis in human A431 cells assessed as caspase-3 cleavage at 10 to 50 uM after 24 hrs by Western blot analysis; format: functional, cell-based
A-431 [27] = assay: Induction of apoptosis in human A431 cells assessed as caspase-3 cleavage at 50 uM after 24 hrs by Western blot analysis; format: functional, cell-based
[28] = target: T1, M-phase inducer phosphatase 3 (Homo sapiens); conditions: 10 to 50 uM
Description: Inhibition of CDC25C in human A431 cells assessed as increase in CDK-mediated phosphorylation of histone H3 at Ser10 residues at 10 to 50 uM after 24 hrs by Western blot analysis

[29] = target: T4, M-phase inducer phosphatase 2 (Homo sapiens, UniProt P30305); assay: Inhibition of recombinant human GST-tagged truncated CDC25B expressed in bacterial expression system using 3-O-methylfluorescein phosphate as substrate after 2 hrs by fluorimetric analysis
T4 sequence (P30305 whole entry): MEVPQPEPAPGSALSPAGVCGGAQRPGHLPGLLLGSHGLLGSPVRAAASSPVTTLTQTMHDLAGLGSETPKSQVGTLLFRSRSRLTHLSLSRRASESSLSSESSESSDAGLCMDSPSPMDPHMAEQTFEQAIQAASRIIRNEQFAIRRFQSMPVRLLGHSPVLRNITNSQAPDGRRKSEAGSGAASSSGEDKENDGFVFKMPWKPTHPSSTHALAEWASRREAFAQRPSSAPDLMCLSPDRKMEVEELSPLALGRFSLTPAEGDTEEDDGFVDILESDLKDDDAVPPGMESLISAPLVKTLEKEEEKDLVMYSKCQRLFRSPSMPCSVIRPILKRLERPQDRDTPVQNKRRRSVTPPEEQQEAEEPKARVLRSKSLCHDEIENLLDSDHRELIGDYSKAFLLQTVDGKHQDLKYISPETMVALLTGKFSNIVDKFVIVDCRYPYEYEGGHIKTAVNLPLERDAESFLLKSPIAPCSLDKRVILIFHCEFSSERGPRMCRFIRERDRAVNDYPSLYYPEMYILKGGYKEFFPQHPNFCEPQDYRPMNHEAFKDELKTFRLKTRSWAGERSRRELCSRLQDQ

O=C1C=CC(=O)c2c1ccc1c2c(=O)[nH]c2ccc(Cl)cc21
Activity (A-431 [1]): 44.5%
Activity (A-431 [2]): >60%
IC50 (Hs 683): 0.2 µM
Activity (A-431 [3]): 13.39%
Activity (A-431 [4]): 7.07%
IC50 (MCF7): 1.2 µM
viability at 10 µM (A-431 [5]): 10%
IC50 (A-431 [6]): 3.13 µM
inhibition [7]: inactive
Activity (A-431 [8]): 15.46%
IC50 [9]: 0.1 µM
Activity (A-431 [10]): 33.63%
IC50 [11]: 5.72 µM
IC50 (A549): 0.3 µM
Activity (A-431 [12]): Active
growth inhibition (GI) (A-431 [13]): Tde
inhibition [14]: inactive
Ratio IC50 [15]: 18.5
IC50 (PC-3): 0.3 µM
IC50 (SK-MEL-28): 0.3 µM
inhibition [16]: Active
Activity (A-431 [17]): Dose-dependent effect
IC50 [18]: 4.33 µM
Activity (A-431 [19]): Active
Activity (A-431 [20]): Active
Activity (A-431 [21]): Active
Activity (A-431 [22]): 31.53%
Activity (A-431 [23]): 27.78%
Activity (A-431 [24]): 26.65%

O=C1C=CC(=O)c2c1ccc1c2c(=O)oc2cc(Cl)ccc21
Activity (A-431 [25]): inactive
Activity (A-431 [1]): 48.91%
IC50 (Hs 683): 1.2 µM
Activity (A-431 [3]): 18.57%
Activity (A-431 [26]): inactive
Activity (A-431 [4]): 16.24%
IC50 (MCF7): 2.8 µM
IC50 (A-431 [6]): 29.2 µM
Activity (A-431 [8]): 3.6%
IC50 [9]: 3.7 µM
Activity (A-431 [10]): 4.07%
IC50 [11]: 0.77 µM
IC50 (A549): 3.2 µM
Activity (A-431 [12]): inactive
IC50 (PC-3): 4.4 µM
IC50 (SK-MEL-28): 7.8 µM
IC50 [18]: 1.61 µM
Activity (A-431 [19]): inactive
Activity (A-431 [22]): 53.78%
Activity (A-431 [23]): 25.91%
Activity (A-431 [24]): 28.92%

O=C1C=CC(=O)c2c1ccc1c2c(=O)oc2ccccc21
Activity (A-431 [1]): 45.05%
IC50 (Hs 683): 20 µM
Activity (A-431 [3]): 18.71%
Activity (A-431 [4]): 11.39%
IC50 (MCF7): 16 µM
IC50 (A-431 [6]): 16 µM
Activity (A-431 [8]): 6.85%
IC50 [9]: 18 µM
Activity (A-431 [10]): 16.51%
IC50 [11]: 2.3 µM
Activity (A-431 [27]): Active
IC50 (A549): 26 µM
Activity (A-431 [12]): Active
inhibition [14]: Active
inhibition [28]: Active
IC50 (PC-3): 32 µM
IC50 (SK-MEL-28): 29 µM
IC50 [29]: 14.4 µM
IC50 [18]: 5.8 µM
Activity (A-431 [19]): Active
Activity (A-431 [22]): 42.38%
Activity (A-431 [23]): 29.72%
Activity (A-431 [24]): 29.39%
